# Source: patent US20250241926A1, “HETEROCYCLIC COMPOUNDS FOR USE IN THE TREATMENT OF CANCER” (ARTIOS PHARMA LIMITED, priority 2021, published 2025)
# Biological target: T1, Human Polθ polymerase domain (aa1820-2590) (Homo sapiens, UniProt O75417)
# T1 construct: Human Polθ polymerase domain (aa1820-2590) was expressed in E. Coli; made in house; host or cells: E. coli
# T1 sequence (O75417 1820-2590): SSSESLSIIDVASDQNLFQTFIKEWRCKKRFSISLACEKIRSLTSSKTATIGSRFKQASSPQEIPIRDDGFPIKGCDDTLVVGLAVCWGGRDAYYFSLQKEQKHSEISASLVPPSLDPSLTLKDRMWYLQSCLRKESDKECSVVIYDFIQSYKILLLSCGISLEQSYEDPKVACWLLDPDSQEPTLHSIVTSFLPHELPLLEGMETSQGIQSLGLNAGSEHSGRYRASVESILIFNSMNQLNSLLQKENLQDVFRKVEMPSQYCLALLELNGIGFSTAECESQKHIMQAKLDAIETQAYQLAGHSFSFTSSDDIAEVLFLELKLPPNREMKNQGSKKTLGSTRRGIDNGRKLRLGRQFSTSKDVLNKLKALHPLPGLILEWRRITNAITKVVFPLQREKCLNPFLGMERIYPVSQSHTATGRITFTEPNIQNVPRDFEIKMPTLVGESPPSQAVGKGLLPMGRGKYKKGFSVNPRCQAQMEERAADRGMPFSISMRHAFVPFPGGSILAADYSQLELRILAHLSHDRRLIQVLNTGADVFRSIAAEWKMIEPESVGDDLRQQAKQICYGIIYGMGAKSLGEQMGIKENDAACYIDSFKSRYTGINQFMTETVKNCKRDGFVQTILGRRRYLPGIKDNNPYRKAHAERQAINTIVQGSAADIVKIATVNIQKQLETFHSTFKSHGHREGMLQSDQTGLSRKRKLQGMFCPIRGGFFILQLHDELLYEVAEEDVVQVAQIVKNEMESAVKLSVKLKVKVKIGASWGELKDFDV
# Experiment: Polθ Polymerase Domain Kinact/Kl Assay (PicoGreen)
# Assay type: biochemical
# Settings: covalent inhibitors, kobs vs [I] fit, 0.8 nM Polθ, 100 nM DNA substrate
# Outline: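 E. coli-expressed enzyme (0.8 nM final) was run with 100 nM annealed DNA substrate and dNTPs in Tris pH 7.5 buffer (1% DMSO), with EDTA stops across a time course up to 60 min. Synthesised DNA was read by PicoGreen fluorescence. kobs per inhibitor concentration was fitted from the time courses, and Kinact and KI came from the kobs-vs-[I] plot.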
row,Compound,kinact/KI [M⁻¹ s⁻¹]
1,"2-(((S)-6-(2-((R)-4-(1- Acryloylazetidin-3-yl)-2- methylpiperazin-1-yl)eth- yl)-7-fluoro-1-methyl-2- oxo-1,2,3,4,5,6-hexahydro- benzo[b][1,4]diazocin-3- yl)amino)-6-methyl-4- (trifluoromethyl)nicotino- nitrile [Example 15]",280000
2,"(S,E)-2-((6-(2-((2- (4-(Dimethyl- amino)but-2-eno- yl)-2-azaspiro[3.3] heptan-6-yl)-oxy)- ethyl)-7-fluoro-1- methyl-2-oxo- 1,2,3,4,5,6-hexa- hydrobenzo[b] [1,4]diazocin-3- yl)amino)-6-meth- yl-4-(trifluoro- methyl)nicotino- nitrile [Example 45]",5.7e+06
3,"2-(((S)-6-(2-((1R,4R)-5- (1-Acryloylazetidin-3-yl)- 2,5-diazabicyclo[2.2.1] heptan-2-yl)ethyl)-7- fluoro-1-methyl-2-oxo- 1,2,3,4,5,6-hexahydro- benzo[b][1,4]diazocin-3- yl)amino)-6-methyl-4- (trifluoromethyl)nicotino- nitrile [Example 18]",230000
4,"C=CC(=O)N1CCN(CC(O)CN2CC[C@H](Nc3nc(C)cc(C(F)(F)F)c3C#N)C(=O)N(C)c3ccc(F)cc32)CC1 (mixture of isomers) [Example 33A, 2-(((S)-6-((S/R)-3-(4-Acryloylpiperazin-1-yl)-2-hydroxypropyl)-8-fluoro-1-methyl-2-oxo-1,2,3,4,5,6-hexahydrobenzo[b][1,4]diazocin-3-yl)amino)-6-methyl-4-(trifluoromethyl)nicotinonitrile]",150000

# Same assay, conditions: covalent inhibitors, kobs vs [I] fit, 0.8 nM Polθ, 100 nM DNA substrate, read-out: Kinact/KI
row,Compound,kinact/KI [M⁻¹ s⁻¹]
1,"C=CC(=O)N1CC2(CCCN(CCN3CC[C@H](Nc4nc(C)cc(C(F)(F)F)c4C#N)C(=O)N(C)c4cccc(F)c43)C2)C1 [Example 9, (S)-2-((6-(2-(2-Acryloyl-2,6-diazaspiro[3.5]nonan-6-yl)ethyl)-7-fluoro-1-methyl-2-oxo-1,2,3,4,5,6-hexahydrobenzo[b][1,4]diazocin-3-yl)amino)-6-methyl-4-(trifluorometh-yl)nicotinonitrile]",300000
2,"C#CCN1CCN(CCN2CC[C@H](Nc3nc(C)cc(C(F)(F)F)c3C#N)C(=O)N(C)c3cccc(F)c32)CC12CN(C(=O)/C=C/CN(C)C)C2 [Example 26, (S,E)-2-((6-(2-(2-(4-(Dimethylamino)but-2-enoyl)-5-(prop-2-yn-1-yl)-2,5,8-triazaspiro[3.5]nonan-8-yl)ethyl)-7-fluoro-1-methyl-2-oxo-1,2,3,4,5,6-hexahydrobenzo[b][1,4]diazocin-3-yl)amino)-6-methyl-4-(trifluoromethyl)nicotinonitrile]",2.1e+06
3,"C=CC(=O)N1CC2(CN(CCN3CC[C@H](Nc4nc(C)cc(C(F)(F)F)c4C#N)C(=O)N(C)c4cccc(F)c43)C[C@@H](C)N2)C1 [Example 63, 2-(((S)-6-(2-((R)-2-Acryloyl-6-methyl-2,5,8-triazaspiro[3.5]nonan-8-yl)ethyl)-7-fluoro-1-methyl-2-oxo-1,2,3,4,5,6-hexahydrobenzo[b][1,4]diazocin-3-yl)amino)-6-methyl-4-(trifluoromethyl)nicotinonitrile]",860000
4,"Cc1cc(C(F)(F)F)c(C#N)c(N[C@H]2CCN(CCN3CCOC4(C3)CN(C(=O)/C=C/CN(C)C)C4)c3c(F)cccc3N(C)C2=O)n1 [Example 1, (S,E)-2-((6-(2-(2-(4-(Dimethylamino)but-2-enoyl)-5-oxa-2,8-diazaspiro[3.5]nonan-8-yl)ethyl)-7-fluoro-1-methyl-2-oxo-1,2,3,4,5,6-hexahydrobenzo[b][1,4]diazocin-3-yl)amino)-6-methyl-4-(trifluoromethyl)nicotinonitrile]",3.1e+06
5,"C=CC(=O)N1CCN(CCCN2CC[C@H](Nc3nc(C)cc(C(F)(F)F)c3C#N)C(=O)N(C)c3ccc(F)cc32)CC1 [Example 38, (S)-2-((6-(3-(4-Acryloylpiperazin-1-yl)propyl)-8-fluoro-1-methyl-2-oxo-1,2,3,4,5,6-hexahydrobenzo[b][1,4]diazocin-3-yl)amino)-6-methyl-4-(trifluoromethyl)nicotinonitrile]",480000
6,"C=CC(=O)N1CC(N2CCN(CCN3CC[C@H](Nc4nc(C)cc(C(F)(F)F)c4C#N)C(=O)N(C)c4cccc(F)c43)C[C@H]2C)C1 [Example 16, 2-(((S)-6-(2-((R)-4-(1-Acryloylazetidin-3-yl)-3-methylpiperazin-1-yl)-ethyl)-7-fluoro-1-methyl-2-oxo-1,2,3,4,5,6-hexa-hydrobenzo[b][1,4]diazocin-3-yl)amino)-6-methyl-4-(trifluorometh-yl)nicotinonitrile]",540000
7,"Cc1cc(C(F)(F)F)c(C#N)c(N[C@H]2CCN(CCN3CCN(C(=O)/C=C/CN(C)C)CC3)c3ccccc3N(C)C2=O)n1 [Example 5, (S,E)-2-((6-(2-(4-(4-(Dimethylamino)but-2-enoyl)piperazin-1-yl)ethyl)-1-methyl-2-oxo-1,2,3,4,5,6-hexahydrobenzo[b][1,4]diazocin-3-yl)amino)-6-methyl-4-(trifluoromethyl)nicotinonitrile]",110000
8,"C=CC(=O)N1CC2(CN(CCN3CC[C@H](Nc4nc(C)cc(C(F)(F)F)c4C#N)C(=O)N(C)c4cccc(F)c43)C[C@H]3COCCN32)C1 [Example 62, 2-(((S)-6-(2-((S)-1-Acryloyltetrahydro-1′H-spiro[azetidine-3,6′-pyrazino[2,1-c][1,4]oxazin]-8′(7′H)-yl)ethyl)-7-fluoro-1-methyl-2-oxo-1,2,3,4,5,6-hexahydrobenzo[b][1,4]diazocin-3-yl)amino)-6-methyl-4-(trifluoromethyl)nicotinonitrile]",1.8e+06
9,"C=CC(=O)N1CC(OC2CCN(CCN3CC[C@H](Nc4nc(C)cc(C(F)(F)F)c4C#N)C(=O)N(C)c4cccc(F)c43)CC2)C1 [Example 13, (S)-2-((6-(2-(4-((1-Acrylo-ylazetidin-3-yl)oxy)piper-idin-1-yl)ethyl)-7-fluoro-1-methyl-2-oxo-1,2,3,4,5,6-hexahydrobenzo[b][1,4]diazocin-3-yl)amino)-6-methyl-4-(trifluorometh-yl)nicotinonitrile]",320000
10,"C=CC(=O)N1CC2(CN(CCN3CC[C@H](Nc4nc(C)cc(C(F)(F)F)c4C#N)C(=O)N(C)c4cccc(C)c43)CCN2)C1 [Example 69, (S)-2-((6-(2-(2-Acryloyl-2,5,8-triazaspiro[3.5]nonan-8-yl)ethyl)-1,7-dimethyl-2-oxo-1,2,3,4,5,6-hexahydrobenzo[b][1,4]diazocin-3-yl)amino)-6-methyl-4-(trifluoromethyl)nicotinonitrile]",4.1e+06
11,"C=CC(=O)N1CC(OCCN2CC[C@H](Nc3nc(C)cc(C(F)(F)F)c3C#N)C(=O)N(C)c3ccccc32)C1 [Example 51, (S)-2-((6-(2-((1-Acryloylazetidin-3-yl)oxy)ethyl)-1-methyl-2-oxo-1,2,3,4,5,6-hexahydrobenzo[b][1,4]diazocin-3-yl)amino)-6-methyl-4-(trifluoromethyl)nicotinonitrile]",70000
12,"Cc1cc(C(F)(F)F)c(C#N)c(N[C@H]2CCN(CCN(C)C(=O)[C@@H]3CCN(C(=O)/C=C/CN(C)C)C3)c3ccccc3N(C)C2=O)n1 [Example 30, (R)—N-(2-((S)-4-((3-Cyano-6-methyl-4-(trifluoromethyl)pyridin-2-yl)amino)-6-methyl-5-oxo-3,4,5,6-tetrahydrobenzo[b][1,4]diazocin-1(2H)-yl)ethyl)-1-((E)-4-(dimethylamino)but-2-enoyl)-N-methylpyrrolidine-3-carboxamide]",690000
13,"C#CCN1CCN(CCN2CC[C@H](Nc3nc(C)cc(C(F)(F)F)c3C#N)C(=O)N(C)c3cccc(F)c32)CC12CN(C(=O)C=C)C2 [Example 25, (S)-2-((6-(2-(2-Acryloyl-5-(prop-2-yn-1-yl)-2,5,8-triazaspiro[3.5]nonan-8-yl)ethyl)-7-fluoro-1-methyl-2-oxo-1,2,3,4,5,6-hexahydrobenzo[b][1,4]diazocin-3-yl)amino)-6-methyl-4-(trifluoromethyl)nicotinonitrile]",1.6e+06
14,"Cc1cc(C(F)(F)F)c(C#N)c(N[C@H]2CCN(CCCOC3CN(C(=O)/C=C/CN(C)C)C3)c3c(F)cccc3N(C)C2=O)n1 [Example 40, (S,E)-2-((6-(3-((1-(4-(Dimethylamino)but-2-enoyl)azetidin-3-yl)oxy)propyl)-7-fluoro-1-methyl-2-oxo-1,2,3,4,5,6-hexahydrobenzo[b][1,4]diazocin-3-yl)amino)-6-methyl-4-(trifluoromethyl)nicotinonitrile]",3e+06
